For twelve compounds, fold induction results are on record in patent US8759535B2, “Substituted fused imidazole derivatives, pharmaceutical compositions, and methods of use thereof” (High Point Pharmaceuticals, LLC, priority 2010, dated 2014).

The term fold induction denotes the ratio of treated to control signal.

Structures can show the parent of a compound that is named as a salt.

For this assay, the system named is HMOX1. The assay can be described thus: HMOX1 Protein Assay (immunostaining of HO-1 in NHLF cells, GE InCell 1000). The assay is classed as cell-based. Particulars: Homo sapiens, fold change above DMSO treated cells, 5 μM compound, 16 h. In short, it runs like this: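 NHLF cells seeded overnight in FGM-2, then exposed to compound or DMSO vehicle for 16 h, fixed, and immunostained for HO-1 with Hoechst nuclear counterstain; imaged on InCell 1000. Values are fold change over DMSO-treated cells, generally at 5 μM (0.8% DMSO), with asterisked entries at 3 μM.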
The compound `CSCCNC(=O)c1ccc2c(c1)nc(Nc1nc3ccc(OC(F)(F)F)cc3s1)n2C` [Example 101, 1-Methyl-2-(6-trifluoromethoxy-benzothiazol-2-ylamino)-1H-benzoimidazole-5-carboxylic acid (2-methylsulfanyl-ethyl)-amide] returned a fold induction at 5 µM of 11.2.

Compound `CNC(=O)c1ccc2c(c1)nc(Nc1nc3ccc(C)cc3s1)n2C` [Example 128, 2-(6-Methyl-benzothiazol-2-ylamino)-1-methyl-1H-benzimidazole-5-carboxylic acid methylamide] had a fold induction at 5 µM of 32.7.

On to `CCNC(=O)[C@H](C)NC(=O)c1ccc2c(c1)nc(Nc1nc3ccc(OC(F)(F)F)cc3s1)n2C` [Example 81, 1-Methyl-2-(6-trifluoromethoxy-benzothiazol-2-ylamino)-1H-benzoimidazole-5-carboxylic acid ((S)-1-ethylcarbamoyl-ethyl)-amide], for which the fold induction at 5 µM stood at 17.

In the case of `COCCn1c(Nc2nc3ccc(Cl)cc3s2)nc2cc(C(=O)NCC(=O)N(C)C)ccc21` [Example 366, 2-(6-Chloro-benzothiazol-2-ylamino)-1-(2-methoxy-ethyl)-1H-benzoimidazole-5-carboxylic acid dimethylcarbamoylmethyl-amide], the fold induction at 5 µM was 18.8.

`Cn1c(Nc2nc3ccc(Cl)cc3s2)nc2cc(C(=O)NC[C@H]3CC[C@H](CO)CC3)ccc21` [Example 255, 2-(6-Chloro-benzothiazol-2-ylamino)-1-methyl-1H-benzoimidazole-5-carboxylic acid (trans-4-hydroxymethyl-cyclohexylmethyl)-amide] came in with a fold induction at 5 µM of 49.3.

On to `Cn1c(Nc2nc3ccc(OC(F)(F)F)cc3s2)nc2cc(C(=O)N3CCCC3)ccc21` [Example 7, [1-Methyl-2-(6-trifluoromethoxy-benzothiazol-2-ylamino)-1H-benzoimidazol-5-yl]-pyrrolidin-1-yl-methanone], for which the fold induction at 5 µM amounted to 5.4.

On to `CN(C)CC1CCCN(C(=O)CNC(=O)c2ccc3c(c2)nc(Nc2nc4ccc(Cl)cc4s2)n3C)C1` (stereo not drawn) [Example 461, 2-(6-Chloro-benzothiazol-2-ylamino)-1-methyl-1H-benzoimidazole-5-carboxylic acid [2-(3-dimethylaminomethyl-piperidin-1-yl)-2-oxo-ethyl]-amide], for which the fold induction at 5 µM came to 27.1.

Consider `CCOCCNC(=O)c1ccc2c(c1)nc(Nc1nc3ccc(Cl)cc3s1)n2CC` [Example 179, 2-(6-Chloro-benzothiazol-2-ylamino)-1-ethyl-1H-benzoimidazole-5-carboxylic acid (2-ethoxy-ethyl)-amide], for which the fold induction at 5 µM was 24.4.

`CNCCn1c(Nc2nc3ccc(Cl)cc3s2)nc2cc(C(=O)NCCOCCO)ccc21` [Example 240, 2-(6-Chloro-benzothiazol-2-ylamino)-1-(2-methylamino-ethyl)-1H-benzoimidazole-5-carboxylic acid [2-(2-hydroxy-ethoxy)-ethyl]-amide hydrochloride] returned a fold induction at 5 µM of 35.4.

Regarding `CCn1c(Nc2nc3ccc(C(F)(F)F)cc3s2)nc2cc(C(=O)NCC(=O)N(C)C)ccc21` [Example 187, 1-Ethyl-2-(6-trifluoromethyl-benzothiazol-2-ylamino)-1H-benzoimidazole-5-carboxylic acid dimethylcarbamoylmethyl-amide], the fold induction at 5 µM is 18.4.

Turning to `CCn1c(Nc2nc3ccc(C(F)(F)F)cc3s2)nc2cc(C(=O)NCCSC)ccc21` [Example 185, 1-Ethyl-2-(6-trifluoromethyl-benzothiazol-2-ylamino)-1H-benzoimidazole-5-carboxylic acid (2-methylsulfanyl-ethyl)-amide], the fold induction at 5 µM was determined as 11.2.

`Cn1c(Nc2nc3ccc(Cl)cc3s2)nc2cc(C(=O)N[C@H]3CCN(CCO)C3)ccc21` [Example 293, 2-(6-Chloro-benzothiazol-2-ylamino)-1-methyl-1H-benzoimidazole-5-carboxylic acid [(S)-1-(2-hydroxy-ethyl)-pyrrolidin-3-yl]amide] displayed a fold induction at 5 µM of 29.4.
